Five compounds from PMC3116808 (Journal of natural products, 2011) can be followed below.

Values after ≈ are worked out from the molar mass of the structure shown.

Type in all cases: cell-based
The subject of assay [1] is P388 lymphocytic leukemia cell line. The assay is described as follows: Murine P388 lymphocytic leukemia cell line growth inhibition.
A further assay deals with MCF-7. Briefly: Human cancer cell line minipanel: breast MCF-7. The settings on record: MCF7.
In a further assay the test system is KM20L2. Briefly: Human cancer cell line minipanel: colon KM20L2. Particulars: KM-20L2.
The subject of a further assay is BXPC-3. The assay is described as follows: Human cancer cell line minipanel: pancreas BXPC-3.
Another assay relates to DU-145. The assay is described as follows: Human cancer cell line minipanel: prostate DU-145.
Another assay has as its system NCI-H460. Briefly: Human cancer cell line minipanel: lung NCI-H460.
The subject of the next assay is SF-268. Briefly: Human cancer cell line minipanel: CNS SF-268.
For assay [2], the system named is panel of murine and human cancer cell lines. The assay is described as follows: Cancer cell growth inhibition, summary over the panel.

As usually defined, the GI50 is the concentration giving 50% growth inhibition. Low readings indicate greater sensitivity of the cells, high ones lower sensitivity of the cells.

Turning to `CC[C@H](C)[C@@H]([C@@H](CC(=O)N1CCC[C@H]1[C@H](OC)[C@@H](C)C(=O)NCCc1ccc(O)cc1)OC)N(C)C(=O)[C@@H](NC(=O)[C@H](C(C)C)N(C)C)C(C)C` [compound 9, Dov-Val-Dil-Dap-4-hydroxyphenethylamide], in assay [1], the ED50 worked out at 3.6 ng/mL (≈ 5.01 nM) and the “ED50 (nanomolar value in parentheses)” value is listed as 5.0 nM.
Regarding `CC[C@H](C)[C@@H]([C@@H](CC(=O)N1CCC[C@H]1[C@H](OC)[C@@H](C)C(=O)Nc1ccc2ccccc2n1)OC)N(C)C(=O)[C@@H](NC(=O)[C@H](C(C)C)N(C)C)C(C)C` [compound 4, Dov-Val-Dil-Dap-2-aminoquinoline], the 50% growth inhibitory concentration (GI50) in the assay with MCF-7 came to 4.6 ng/mL (≈ 6.34 nM); with KM20L2 it was 7.7 ng/mL (≈ 10.6 nM); in the assay with BXPC-3 it was 29 ng/mL (≈ 40 nM); in the assay with DU-145, 23 ng/mL (≈ 31.7 nM); in the assay on NCI-H460 it was 16 ng/mL (≈ 22.1 nM); with SF-268, 29 ng/mL (≈ 40 nM). This compound gave an ED50 in assay [1] of 31 ng/mL (≈ 42.8 nM). Besides, the “ED50 (nanomolar value in parentheses)” value in assay [1] came to 42.8 nM.
In the case of `CC[C@H](C)[C@@H]([C@@H](CC(=O)N1CCC[C@H]1[C@H](OC)[C@@H](C)C(=O)NCCc1ccc(OP(=O)([O-])[O-])cc1)OC)N(C)C(=O)[C@@H](NC(=O)[C@H](C(C)C)N(C)C)C(C)C.[K+].[K+]` [3c, Potassium Auristatin TP], in assay [1], the ED50 came out at 7.6 ng/mL and the “ED50 (nanomolar value in parentheses)” value is given as 8.7 nM.
For `CC[C@H](C)[C@@H]([C@@H](CC(=O)N1CCC[C@H]1[C@H](OC)[C@@H](C)C(=O)NCCc1ccc(OP(=O)([O-])[O-])cc1)OC)N(C)C(=O)[C@@H](NC(=O)[C@H](C(C)C)N(C)C)C(C)C.[Na+].[Na+]` [3b, Sodium Auristatin TP], the GI50 in the assay on MCF-7 amounted to 0.68 ng/mL; with KM20L2, 0.61 ng/mL; in the assay on BXPC-3, 46 ng/mL; with DU-145 it was 0.54 ng/mL; in the assay on NCI-H460, 0.88 ng/mL; with SF-268, 1.25 ng/mL. Also, in assay [1], the ED50 is < 1 ng/mL. The “ED50 (nanomolar value in parentheses)” value in assay [1] is reported as < 1.2 nM.
For `CC[C@H](C)[C@@H]([C@@H](CC(=O)N1CCC[C@H]1[C@H](OC)[C@@H](C)C(=O)Nc1ccc2ncccc2c1)OC)N(C)C(=O)[C@@H](NC(=O)[C@H](C(C)C)N(C)C)C(C)C` [compound 5, Dov-Val-Dil-Dap-6-aminoquinoline], the GI50 is 0.14 ng/mL (≈ 0.193 nM) in the assay on MCF-7; 0.25 ng/mL (≈ 0.345 nM) in the assay with KM20L2; 0.31 ng/mL (≈ 0.428 nM) in the assay with BXPC-3; 0.3 ng/mL (≈ 0.414 nM) with DU-145; 0.36 ng/mL (≈ 0.497 nM) with NCI-H460; 0.1 ng/mL (≈ 0.138 nM) in assay [2]. Besides, in the assay on SF-268, the GI50 amounted to 0.16 ng/mL (≈ 0.221 nM). Also, in assay [1], the ED50 amounted to 2.6 ng/mL (≈ 3.59 nM). The “ED50 (nanomolar value in parentheses)” value in assay [1] is 3.59 nM.
